What is called EC50 is the concentration at which the effect is half-maximal. A word on the GI50: it is the concentration giving 50% growth inhibition. For orientation: AC50 means the midpoint of the concentration-response curve, whichever way the signal moves. Broadly, the IC50 is the concentration at which inhibition is half-maximal.

The values below come from ChEMBL document CHEMBL1201862, “PubChem BioAssay data set” (2004).

For experiment [1], the target named is Voltage-dependent T-type calcium channel subunit alpha-1H (Homo sapiens, UniProt O95180). It is filed as functional.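 Also: channel activity triggered by adding a high calcium stimulation buffer.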
Another experiment relates to P388/ADR. Put plainly: cells. The note with it: Mus musculus. Format: functional.
A further experiment has as its system SN12K1. The experiment in a line: cells. It is filed as functional. The note with it: Homo sapiens.
For a further experiment, the system named is P388. The experiment in a line: cells. Format: functional. To be noted: Mus musculus.
The target in experiment [2] is T1, Long-chain-fatty-acid--AMP ligase FadD28 (Mycobacterium tuberculosis, UniProt P9WQ59).
T1 sequence (P9WQ59 whole entry): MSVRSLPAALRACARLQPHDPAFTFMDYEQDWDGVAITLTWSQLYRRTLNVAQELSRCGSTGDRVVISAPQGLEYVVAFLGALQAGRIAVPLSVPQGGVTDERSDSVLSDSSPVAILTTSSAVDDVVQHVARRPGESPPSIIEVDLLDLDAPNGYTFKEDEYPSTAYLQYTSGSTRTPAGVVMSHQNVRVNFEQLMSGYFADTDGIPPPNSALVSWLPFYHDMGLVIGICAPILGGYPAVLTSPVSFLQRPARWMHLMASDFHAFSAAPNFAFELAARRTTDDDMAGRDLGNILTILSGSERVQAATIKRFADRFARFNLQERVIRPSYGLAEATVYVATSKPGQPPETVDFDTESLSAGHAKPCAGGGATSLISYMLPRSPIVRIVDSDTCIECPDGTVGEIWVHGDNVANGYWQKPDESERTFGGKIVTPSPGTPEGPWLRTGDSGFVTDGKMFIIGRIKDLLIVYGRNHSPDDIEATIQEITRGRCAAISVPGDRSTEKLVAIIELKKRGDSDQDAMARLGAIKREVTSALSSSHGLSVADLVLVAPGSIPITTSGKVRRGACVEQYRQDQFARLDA
The experiment in a line: Fluorescence polarization aasay to screen for inhibitors that compete for the binding of FadD28 to a bisubstrate Measured in Biochemical System Using Plate Reader - 2147-01_Inhibitor_Dose_CherryPick_Activity. Format: functional, Mycobacterium tuberculosis H37Rv. In general terms: Polarisation of emitted light reports the rotation of a fluorescent probe.

A short description of experiment [3]: ZM109 Env clade C HIV-1 fusion inhibitors, dose response, HeLa effector, CEM target cells, luciferase, cherry-pick (AID 652058). It is filed as functional, cell-based.
Another experiment in a line: cells. It is filed as functional.
Experiment [4] in a line: A549 cell cytotoxicity, dose response, cytotoxicity control, plate reader, cherry-pick, antagonist series (AID 743412). Format: functional, cell-based.
Experiment [5] is described as follows: HepG2 cell cytotoxicity, dose response, cytotoxicity control, plate reader, cherry-pick, antagonist series (AID 743416). Format: functional, cell-based.
The nature of experiment [6]: LGR2 antagonists, dose response, cell-based, HEK293, CRE-luciferase reporter, cherry pick, set 2 (AID 743343).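 Also: transfected cells were stimulated with diluted bursicon conditioned medium after compound addition.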 It is filed as functional. (In general: Reporter assays use an easily measured gene product as a stand-in for the process of interest.)
A short description of experiment [7]: MC4R antagonists, dose response, counter-screen for LGR2 antagonist project, cell-based, plate reader, cherry pick (AID 743444).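 Also: transfected HEK 293 cells stimulated with alpha-MSH peptide; potency of inhibitors of the alpha-MSH evoked signal.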 Format: functional. A general note: A counterscreen serves to expose hits that act by an unwanted route or on another target.
Experiment [8] is described as follows: inhibitors of HIV Env-driven cell fusion, dose response, cherry-pick (AID 652057). Format: functional, cell-based.
Experiment [9] in a line: Luminescence Cell-Based Dose Retest to Confirm Inhibitors of Cancer Stem Cells. [Related pubchem assays (depositor defined):AID2717, AID2721]. Format: functional. The note with it: Homo sapiens.
The target of another experiment is Paired box protein Pax-8 (Homo sapiens, UniProt Q06710). Put plainly: inhibitors of PAX8-driven TPO luciferase reporter, dose response, RMG-I cells, cherry-pick (AID 687027).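 Also: luciferase reporter driven by Pax8 target thyroperoxidase promoter measured by SteadyGlo luminescence.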 Format: functional, cell-based.

Active and inactive are the calls of the source.

Sequence of Voltage-dependent T-type calcium channel subunit alpha-1H (O95180 whole entry): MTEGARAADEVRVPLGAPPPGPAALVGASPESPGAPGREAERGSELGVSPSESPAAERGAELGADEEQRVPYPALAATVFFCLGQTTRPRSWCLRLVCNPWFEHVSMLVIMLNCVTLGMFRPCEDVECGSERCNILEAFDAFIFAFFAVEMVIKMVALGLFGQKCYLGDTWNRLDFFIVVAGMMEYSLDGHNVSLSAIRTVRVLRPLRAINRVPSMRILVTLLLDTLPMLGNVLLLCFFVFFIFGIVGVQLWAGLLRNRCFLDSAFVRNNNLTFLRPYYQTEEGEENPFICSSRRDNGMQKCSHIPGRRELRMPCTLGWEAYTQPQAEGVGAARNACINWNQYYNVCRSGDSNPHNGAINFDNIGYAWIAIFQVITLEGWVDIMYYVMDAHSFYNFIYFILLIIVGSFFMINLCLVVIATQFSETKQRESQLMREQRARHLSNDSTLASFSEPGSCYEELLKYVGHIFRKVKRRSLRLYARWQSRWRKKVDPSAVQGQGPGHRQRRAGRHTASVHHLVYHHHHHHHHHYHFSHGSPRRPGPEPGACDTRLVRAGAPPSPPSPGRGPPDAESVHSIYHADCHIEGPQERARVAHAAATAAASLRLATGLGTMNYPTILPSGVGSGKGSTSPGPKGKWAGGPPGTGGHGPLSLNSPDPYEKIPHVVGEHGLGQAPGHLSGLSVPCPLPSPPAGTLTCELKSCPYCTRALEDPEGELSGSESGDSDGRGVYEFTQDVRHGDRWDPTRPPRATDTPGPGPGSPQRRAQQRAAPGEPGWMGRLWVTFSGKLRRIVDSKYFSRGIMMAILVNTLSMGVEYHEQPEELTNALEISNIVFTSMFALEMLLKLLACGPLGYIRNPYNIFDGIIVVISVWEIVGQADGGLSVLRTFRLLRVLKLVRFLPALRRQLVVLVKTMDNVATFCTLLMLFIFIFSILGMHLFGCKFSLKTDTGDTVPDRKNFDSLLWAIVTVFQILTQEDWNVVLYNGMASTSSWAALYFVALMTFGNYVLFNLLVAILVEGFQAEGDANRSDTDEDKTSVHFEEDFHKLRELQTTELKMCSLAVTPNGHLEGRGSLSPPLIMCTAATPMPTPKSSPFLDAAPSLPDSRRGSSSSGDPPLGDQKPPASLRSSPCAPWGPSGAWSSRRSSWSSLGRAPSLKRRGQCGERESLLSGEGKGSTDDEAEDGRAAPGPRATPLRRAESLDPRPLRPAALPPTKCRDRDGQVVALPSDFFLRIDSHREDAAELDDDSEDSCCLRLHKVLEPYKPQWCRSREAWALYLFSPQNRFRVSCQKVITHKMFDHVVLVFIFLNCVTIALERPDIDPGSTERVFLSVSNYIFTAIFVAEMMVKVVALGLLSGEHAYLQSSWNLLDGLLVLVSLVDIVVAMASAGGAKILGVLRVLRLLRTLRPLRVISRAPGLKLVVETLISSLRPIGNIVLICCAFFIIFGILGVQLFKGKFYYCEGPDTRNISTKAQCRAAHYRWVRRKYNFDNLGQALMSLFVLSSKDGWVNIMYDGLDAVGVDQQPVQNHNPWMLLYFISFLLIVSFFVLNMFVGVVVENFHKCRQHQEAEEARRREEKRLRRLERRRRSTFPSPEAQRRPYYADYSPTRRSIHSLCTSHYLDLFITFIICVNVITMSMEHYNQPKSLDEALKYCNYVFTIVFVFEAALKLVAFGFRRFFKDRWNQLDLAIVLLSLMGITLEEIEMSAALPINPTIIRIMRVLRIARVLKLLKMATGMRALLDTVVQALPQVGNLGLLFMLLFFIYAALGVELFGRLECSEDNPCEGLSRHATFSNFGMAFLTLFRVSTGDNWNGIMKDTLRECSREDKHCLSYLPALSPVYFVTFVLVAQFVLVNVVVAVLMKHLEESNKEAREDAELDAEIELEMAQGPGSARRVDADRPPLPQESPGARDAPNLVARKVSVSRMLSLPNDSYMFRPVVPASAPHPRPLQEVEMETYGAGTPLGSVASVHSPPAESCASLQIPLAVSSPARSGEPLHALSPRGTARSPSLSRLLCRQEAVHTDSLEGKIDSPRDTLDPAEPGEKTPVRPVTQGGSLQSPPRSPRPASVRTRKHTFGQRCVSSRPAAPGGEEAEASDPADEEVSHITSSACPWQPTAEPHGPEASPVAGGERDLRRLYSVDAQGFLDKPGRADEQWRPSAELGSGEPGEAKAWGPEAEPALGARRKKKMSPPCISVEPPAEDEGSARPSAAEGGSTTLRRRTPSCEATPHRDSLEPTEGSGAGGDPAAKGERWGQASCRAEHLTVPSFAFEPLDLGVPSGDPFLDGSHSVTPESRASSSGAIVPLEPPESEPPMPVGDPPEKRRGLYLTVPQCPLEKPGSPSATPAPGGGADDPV
Sequence of Paired box protein Pax-8 (Q06710 whole entry): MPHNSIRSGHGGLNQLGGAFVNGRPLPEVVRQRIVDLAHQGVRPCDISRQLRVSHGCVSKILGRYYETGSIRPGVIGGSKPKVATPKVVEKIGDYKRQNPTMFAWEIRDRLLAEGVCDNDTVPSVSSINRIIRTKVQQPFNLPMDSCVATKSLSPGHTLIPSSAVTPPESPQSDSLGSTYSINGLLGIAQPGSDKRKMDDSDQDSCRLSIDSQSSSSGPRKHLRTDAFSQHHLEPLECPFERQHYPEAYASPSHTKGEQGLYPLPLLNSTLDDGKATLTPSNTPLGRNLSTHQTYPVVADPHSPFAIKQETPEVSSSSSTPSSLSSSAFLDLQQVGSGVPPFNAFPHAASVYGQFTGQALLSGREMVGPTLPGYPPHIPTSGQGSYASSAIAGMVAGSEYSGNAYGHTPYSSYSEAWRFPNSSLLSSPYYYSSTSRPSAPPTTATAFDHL

As for `COc1ccc(C(c2nnnn2Cc2ccc(F)cc2)N2CCN(c3ccccc3)CC2)cc1` (configuration not stated), the EC50 in experiment [1] was 2.66 µM (active).

In the case of `Cc1ccc(S(=O)(=O)N(CC(=O)N2CCN(c3ccc(F)cc3)CC2)C2CCCCC2)cc1`, in experiment [1], the 50% effective concentration (EC50) was 4.33 µM (active).

Consider `CC(CN1CC(=O)NC(=O)C1)N1CC(=O)NC(=O)C1` (configuration not stated) [RAZOXANE], for which the GI50 in the experiment with P388/ADR was 141 µM (inactive); in the experiment with SN12K1, 58.1 µM (inactive); in the experiment with P388, 1.85 µM (inactive).

Regarding `O=C(O)c1ccc(-c2nc(-c3ccccc3)c(-c3ccccc3)[nH]2)cc1`, the half-maximal activity concentration (AC50) in experiment [2] is 92.3 µM (active).

As to `COC(=O)C[C@H]1C=C[C@H](NC(=O)c2ccccn2)[C@@H](CO)O1`, the half-maximal activity concentration (AC50) in experiment [3] is 0.414 µM (active).

In the case of `N/C(=N\O)N/N=C\c1ccc(O)c(O)c1O`, the values for the GI50 in the experiment on P388/ADR, with SN12K1 and in the experiment with P388 were 8.65 µM (inactive), 17.7 µM (inactive) and 14.4 µM (inactive), respectively.

In the case of `Cc1ccc(-c2noc(CCC(=O)Nc3cccc(C#N)c3)n2)cc1`, the EC50 in experiment [1] is 2.84 µM (active). Moreover, the IC50 in the experiment “cells” is 19.9 µM (active).

For `Cc1c2ccncc2c(C)c2c1[nH]c1ccc(Cl)cc12`, the figures for the GI50 in the experiment with P388/ADR, in the experiment on SN12K1 and in the experiment on P388 were 1.83 µM (inactive), 2.94 µM (inactive) and 1.63 µM (inactive), respectively.

Take `c1ccc(COc2cccc(-c3cc4nc(NCCCn5ccnc5)ccn4n3)c2)cc1`: the AC50 in [4] was 40 µM (active); in experiment [5], > 52 µM (inactive).

For the compound `C=CCc1cc(C)ccc1OCC(O)CN1CCN(c2ccccc2)CC1` (configuration not stated), the EC50 in experiment [1] was 8.33 µM (active).

Consider `CCCC[S+]([O-])CC(CO)NC(=O)/C=C/c1c(C)[nH]c(=O)[nH]c1=O` (configuration not stated), for which the GI50 with P388/ADR is 1.5 µM (inactive); in the experiment on SN12K1, 6.01 µM (inactive); with P388 it was 1.58 µM (inactive).

`COc1cc(/N=N\c2cccc(S(=O)(=O)O)c2)ccc1/N=N\c1ccc(/C=C/c2ccc(-n3on3-c3ccc(/C=C/c4ccc(/N=N/c5ccc(/N=N\c6cccc(S(=O)(=O)O)c6)cc5OC)cc4S(=O)(=O)O)c(S(=O)(=O)O)c3)cc2S(=O)(=O)O)c(S(=O)(=O)O)c1`: the GI50 in the experiment on P388/ADR, in the experiment with SN12K1 and with P388 was > 100 µM (inactive) throughout.

Turning to `S=c1sc2c(s1)SC(c1ccccc1)CS2` (configuration not stated), the GI50 in the experiment on P388/ADR is 44.6 µM (inactive); in the experiment with SN12K1, > 89.5 µM (inactive); with P388, 9.86 µM (inactive).

With `CCc1nc(Sc2nnnn2-c2ccccc2)c2c3c(sc2n1)CCCC3`, the AC50 in experiment [6] is 5.1 µM (active); in experiment [7], 5.14 µM (active).

Regarding `Cc1ccccc1-n1nc2c(c1NC(=O)c1ccc(Br)o1)CSC2`, in experiment [1], the EC50 is 5.29 µM (active).

As for `COc1cc(C2c3cc4c(cc3[C@@H](Nc3ccc(Oc5ccccc5)cc3)C3COC(=O)[C@H]23)OCO4)cc(OC)c1O` (some centres not stated), the values for the GI50 in the experiment on P388/ADR, in the experiment with SN12K1 and with P388 were 0.407 µM (active), 0.935 µM (active) and 0.0504 µM (active), respectively.

As to `CCOC(=O)[C@@H]1[C@H]2COc3cc(OC)ccc3[C@H]2N2C(=O)N(c3cccc(F)c3)C(=O)[C@@]12C`, the AC50 in experiment [8] is 35.2 µM (active).

On to `Cc1cccc(NC(=O)CN2C(=O)N/C(=C/c3ccc(-c4cccc(C(=O)O)c4C)o3)C2=O)c1`, for which, in experiment [2], the half-maximal activity concentration (AC50) was 72.3 µM (active).

`S=C(NCc1ccccc1)NCc1cccc(CNC(=S)NCc2ccccc2)c1`: the half-maximal activity concentration (AC50) in experiment [2] is 27.3 µM (active).

For `Clc1ccc(CSc2nnnn2-c2ccc3c(c2)OCO3)c(Cl)c1`, the EC50 in experiment [1] is 9.79 µM (active). In [9], the AC50 was 13.1 µM (active).

`Cc1cccc(NC(=O)COC(=O)c2cccc(S(=O)(=O)N3CCCCCC3)c2)c1`: in [2], the concentration at half-maximal activity (AC50) was 7.43 µM (active).

On to `CC(=O)Nc1ccc(S(=O)(=O)c2ccnc3cc(Cl)ccc23)cc1`, for which the AC50 is 26.9 µM (active) in experiment [4], 66.3 µM (active) in [6] and 0.449 µM (active) at Paired box protein Pax-8.
